Experimental data reported in PubChem BioAssay (NCI).
Where “and” joins values, the source holds several entries; their conditions need not be identical. Equal entries are not always repeated.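 A five-concentration, 48-hour dose response in 96-well plates underlies each endpoint, interpolated linearly between surrounding concentrations. Abbreviation: GI50, concentration required for 50% inhibition of growth. TGI: total growth inhibition.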

Tests used:
Assay in all cases: NCI anticancer screen, dose series, 48 h
DU-145 prostate = system: DU-145 prostate
SK-MEL-2 melanoma = system: SK-MEL-2 melanoma
HS 578T breast = system: HS 578T breast
HOP-92 NSCLC = system: HOP-92 NSCLC
K-562 leukemia = system: K-562 leukemia
RPMI-8226 leukemia = system: RPMI-8226 leukemia
MOLT-4 leukemia = system: MOLT-4 leukemia
NCI/ADR-RES ovarian = system: NCI/ADR-RES ovarian
OVCAR-3 ovarian = system: OVCAR-3 ovarian
HL-60(TB) leukemia = system: HL-60(TB) leukemia
MALME-3M melanoma = system: MALME-3M melanoma
SK-MEL-28 melanoma = system: SK-MEL-28 melanoma
MDA-N = system: MDA-N
OVCAR-4 ovarian = system: OVCAR-4 ovarian

SMILES	TGI (DU-145 prostate) [µM]	TGI (SK-MEL-2 melanoma)	TGI (HS 578T breast) [µM]	TGI (HOP-92 NSCLC)	TGI (K-562 leukemia)	TGI (RPMI-8226 leukemia)	TGI (MOLT-4 leukemia) [µM]	TGI (NCI/ADR-RES ovarian) [µM]	TGI (OVCAR-3 ovarian) [µM]	TGI (HL-60(TB) leukemia)	TGI (MALME-3M melanoma) [µM]	TGI (SK-MEL-28 melanoma)	TGI (MDA-N)	TGI (OVCAR-4 ovarian) [µM]	GI50 (DU-145 prostate)	GI50 (HS 578T breast)	GI50 (K-562 leukemia)	GI50 (RPMI-8226 leukemia)	GI50 (MOLT-4 leukemia)
NCC(=O)C(O)C(O)C(O)CO (centres undefined)	> 100	> 100 µM	> 100	> 100 µM	> 100 µM	> 100 µM	> 100	> 100	> 100	> 100 µM	> 100	> 100 µM	> 100 µM	> 100	–	–	–	–	–
CON(C)C(=O)C(Cc1ccccc1)NC(=O)OC(C)(C)C (centres undefined)	> 100	–	> 100	> 100 µM	> 100 µM	> 100 µM	> 100	> 100	> 100	> 100 µM	> 100	> 100 µM	> 100 µM	–	–	–	–	–	–
O=C(NNC(=S)Nc1ccccc1)C12CC3CC(CC(C3)C1)C2	> 100	> 86.9 µM	> 100	95.8 µM	> 81.6 µM	> 100 µM	60	59.7	> 67.7	37.7 µM	> 100	> 100 µM	> 100 µM	> 100	–	–	–	–	–
COC(=O)c1cc(C#N)[nH]c1-c1ccsc1	> 100	> 100 µM	> 100	> 100 µM	> 100 µM	> 100 µM	> 100	> 100	> 100	48.7 µM	> 100	> 100 µM	> 100 µM	> 100	–	–	–	–	–
C[C@]12CC[C@@H]3c4ccc(OC(=O)c5ccccc5)cc4CC[C@H]3[C@@H]1CCC2OC(=O)c1cccc2c(=O)c3ccccc3[nH]c12 (some centres undefined)	42.6	54.3 µM	38.5	34.9 µM	> 100 µM	> 100 µM	> 100	39.9	> 100	> 100 µM	46.8	30.6 µM	27.8 µM	33.8	–	–	–	–	–
CCc1cc(-c2nsc(=O)o2)c(S(=O)(=O)CC)s1	> 100	> 100 µM	> 100	> 100 µM	> 100 µM	> 100 µM	–	> 100	> 100	12 µM	–	> 100 µM	> 100 µM	> 100	–	–	–	–	–
O=C1O/C(=C\c2ccc(O)c(Br)c2)C(c2ccc(O)cc2)=C1Cl	> 100	> 100 µM	> 100	> 100 µM	> 100 µM	34 µM	> 100	82.4	59.7	> 100 µM	> 100	> 100 µM	74.5 µM	> 100	–	–	–	–	–
CC1OC(OC2C(OC(=O)[C@]34CCC(C)(C)C[C@H]3C3=CC[C@@H]5[C@@]6(C)CC[C@H](OC7OC(C(=O)O)C(O)C(O)C7O)C(C)(C)[C@@H]6CC[C@@]5(C)[C@]3(C)CC4)OCC(O)C2O)C(O)C(O)C1OC1OCC(O)C(O)C1O (some centres undefined)	> 100	> 100 µM and 63.7 µM	> 100	99.8 µM and 43.7 µM	> 100 µM and 76.9 µM	> 100 µM and 71.5 µM	> 100	> 100	> 100	73.5 µM and 45.8 µM	> 100	34.4 µM and 58.9 µM	37.8 µM and 36.2 µM	> 100	> 100 µM and 45.9 µM	> 100 µM and 45.5 µM	58.7 µM and 28 µM	54.5 µM and 25.6 µM	> 100 µM and 36.9 µM
O=S(=O)(O)c1cc(S(=O)(=O)O)c2c(N=Nc3cccc4ccccc34)c(O)ccc2c1	> 100	> 100 µM	> 100	> 100 µM	> 100 µM	> 100 µM	> 100	> 100	> 100	> 100 µM	> 100	> 100 µM	> 100 µM	> 100	–	–	–	–	–
O=C(O)c1ccc(Nc2ccnc3cc(Cl)ccc23)cc1O	> 100	> 100 µM	> 100	> 100 µM	> 100 µM	> 100 µM	> 100	> 100	> 100	> 100 µM	> 100	> 100 µM	> 100 µM	> 100	–	–	–	–	–
COC(=O)c1cc(NC2OCC(OC(C)=O)C(OC(C)=O)C2OC(C)=O)nc(SC)c1C(=O)OC (centres undefined)	> 100	> 100 µM	> 100	> 100 µM	–	> 100 µM	> 100	> 100	> 100	> 100 µM	–	> 100 µM	> 100 µM	> 100	–	–	–	–	–
CCCCCCCC1c2cc3[nH]c(cc4nc(cc5[nH]c(cc(n2)[C@@]1(C)CC(=O)N(C)C)c(C)c5CCC(=O)O)C(CCC(=O)O)=C4C)cc3C (some centres undefined)	57	34 µM	40.6	43.8 µM	56.7 µM	47.7 µM	–	43.1	37.1	45.8 µM	39	35.8 µM	> 100 µM	> 100	–	–	–	–	–
N#Cc1c(C#N)c(-c2cccc([N+](=O)[O-])c2)n(-c2ccccc2)c1N	> 100	> 100 µM	> 100	> 100 µM	> 100 µM	> 100 µM	> 100	> 100	> 100	> 100 µM	> 100	–	> 100 µM	> 100	–	–	–	–	–
Cn1c(=O)n(-c2c3ccccc3c(Cl)c3ccccc23)n(C(C)(C)C)c1=O	> 100	> 100 µM	> 100	> 100 µM	> 100 µM	–	> 100	> 100	> 100	> 100 µM	> 100	> 100 µM	> 100 µM	–	–	–	–	–	–
Cc1cc(S(=O)(=O)Nc2nc(N)n(-c3cnc4ccccc4n3)n2)c(S)cc1Cl	> 100	> 100 µM	> 100	89.2 µM	> 100 µM	–	–	> 100	> 100	> 100 µM	> 100	> 100 µM	> 100 µM	> 100	–	–	–	–	–
COC(=O)CCc1ccc2c(c1)CCC2	> 100	> 100 µM	> 100	> 100 µM	–	> 100 µM	> 100	> 100	> 100	> 100 µM	> 100	> 100 µM	> 100 µM	> 100	–	–	–	–	–
CC1CC(N)=Nc2ccccc2N1Cc1ccccc1 (centres undefined)	32.7	27.4 µM	23.8	–	15.7 µM	17.2 µM	18.4	28.4	24.9	19.5 µM	15.4	23.8 µM	39.6 µM	34.5	–	–	–	–	–

SMILES	TGI (DU-145 prostate) [µM]	TGI (SK-MEL-2 melanoma)	TGI (HS 578T breast) [µM]	TGI (HOP-92 NSCLC)	TGI (K-562 leukemia)	TGI (RPMI-8226 leukemia)	TGI (MOLT-4 leukemia) [µM]	TGI (NCI/ADR-RES ovarian) [µM]	TGI (OVCAR-3 ovarian) [µM]	TGI (HL-60(TB) leukemia)	TGI (MALME-3M melanoma) [µM]	TGI (SK-MEL-28 melanoma)	TGI (MDA-N)	TGI (OVCAR-4 ovarian) [µM]	GI50 (DU-145 prostate)	GI50 (HS 578T breast)	GI50 (K-562 leukemia)	GI50 (RPMI-8226 leukemia)	GI50 (MOLT-4 leukemia)
COC(=O)c1ccccc1C1CN=NC12Cc1c(C)cc(C)cc1C2=O (centres undefined)	> 100	> 100 µM	> 100	> 100 µM	> 100 µM	–	> 100	> 100	> 100	> 100 µM	> 100	> 100 µM	> 100 µM	> 100	–	–	–	–	–
Cc1[nH]c2c(C)ccc(C)c2c1CC(=O)O	> 100	81.9 µM	60.4	–	> 100 µM	66.8 µM	54.1	> 100	> 100	23.7 µM	> 100	> 100 µM	> 100 µM	> 100	–	–	–	–	–
CCOC(=O)Cc1ccc(Nc2nc3cc(C(F)(F)F)ccc3nc2C(=O)OCC)cc1	> 100	> 100 µM	85.1	> 100 µM	–	–	> 100	> 100	> 100	> 100 µM	> 100	> 100 µM	> 100 µM	> 100	–	–	–	–	–
O=C(O)C(Cc1ccc(O)cn1)NC(=O)C(F)(F)F (centres undefined)	> 100	–	> 100	–	> 100 µM	> 100 µM	–	> 100	> 100	> 100 µM	> 100	> 100 µM	> 100 µM	–	–	–	–	–	–
COC(C)(C)C(O)C(O)C[C@H](C)C1CC=C2C1(C)CCC1[C@@]3(C)CCC(OC(C)=O)C(C)(C)C3CC(OC3OC(COC(C)=O)C(O)C(O)C3O)[C@@]21C (some centres undefined)	> 10	–	> 10	> 10 µM	> 10 µM	5.14 µM	4.13	> 10	9.79	5.54 µM	> 10	> 10 µM	> 10 µM	> 10	–	–	–	–	–
COc1ccc(C)c2c1N[C@](C)([C@]1(C)Nc3c(OC)ccc(C)c3C1=O)C2=O	> 100	> 100 µM	> 100	> 100 µM	> 100 µM	> 100 µM	> 100	> 100	> 100	–	> 100	> 100 µM	> 100 µM	> 100	–	–	–	–	–
O=c1c2cccnc2[nH]c2ccc3scnc3c12	> 10	> 10 µM	> 10	> 10 µM	–	> 10 µM	> 10	> 10	> 10	> 10 µM	> 10	> 10 µM	> 10 µM	> 10	–	–	–	–	–
CC(=O)O[C@H]1CC[C@H]2[C@@H]3CCc4cc(O)c(I)cc4[C@H]3CC[C@]12C	28.7	37.3 µM	31.9	–	> 100 µM	41.9 µM	61.6	43.2	31.4	80.9 µM	37	29.6 µM	31.3 µM	28	–	–	–	–	–
Cc1cc(Cl)nc(NC(=O)CSc2ccc(Cl)cc2)n1	> 100	> 100 µM	> 100	> 100 µM	> 100 µM	> 100 µM	> 100	> 100	> 100	> 100 µM	> 100	> 100 µM	> 100 µM	–	–	–	–	–	–
CNC(=O)Nc1cc2c3c(c1)CCCN3CCC2	> 10	> 10 µM	> 10	> 10 µM	> 10 µM	> 10 µM	–	> 10	> 10	–	> 10	> 10 µM	> 10 µM	> 10	–	–	–	–	–
CC(=O)OCC1OC(n2c(C)c(N=Nc3ccc(C)cc3)c(C)c(C#N)c2=S)C(OC(C)=O)C(OC(C)=O)C1OC(C)=O (centres undefined)	> 100	–	74.7	34.2 µM	> 100 µM	> 100 µM	> 100	> 100	> 100	> 100 µM	> 100	> 100 µM	> 100 µM	> 100	–	–	–	–	–
O=C(Sc1c(-c2ccccc2)c(=O)n(-c2ccccc2)c(=S)n1-c1ccccc1)c1ccc(Cl)cc1	> 100	–	> 100	> 100 µM	> 100 µM	–	> 100	> 100	> 100	> 100 µM	> 100	> 100 µM	> 100 µM	> 100	–	–	–	–	–
CC(C)(C)CN1[C@@H]2CCCC[C@H]2N(CC(C)(C)C)P1(=O)Cc1ccccc1	30	29.9 µM	31	–	28.2 µM	–	27.5	27.1	23.5	26.4 µM	26.3	31.7 µM	28.4 µM	24.9	–	–	–	–	–
CC1CCCOc2ccc(cc2)C=Nc2ccc(cc2)CCc2ccc(cc2)N=Cc2ccc(cc2)OCCC1 (centres undefined)	> 100	> 100 µM	> 100	> 100 µM	> 100 µM	> 100 µM	> 100	> 100	> 100	–	> 100	> 100 µM	> 100 µM	> 100	–	–	–	–	–
CC1(C)C(O)c2ccccc2OC1N1CCN(C2Oc3ccccc3C(O)C2(C)C)CC1 (centres undefined)	> 100	–	> 100	> 100 µM	> 100 µM	> 100 µM	> 100	> 100	> 100	> 100 µM	> 100	> 100 µM	> 100 µM	> 100	–	–	–	–	–
COc1ccc(C2Oc3c(cccc3OC)C=C2[N+](=O)[O-])cc1OC (centres undefined)	> 100	–	> 100	–	> 100 µM	> 100 µM	> 100	53.4	67.9	> 100 µM	38.7	20.5 µM	> 100 µM	> 100	–	–	–	–	–
